Measurements as given in patent US12509454B2, “Thiadiazolyl derivatives” (IDEAYA Biosciences, Inc., priority 2019, dated 2025).

Biological target: Pol theta (1-899) (Homo sapiens (Human), UniProt O75417)
Experiment: Pol theta ATPase activity, NADH oxidation-coupled enzymatic assay
Format: biochemical
Details: Pol theta (1-899) 10 nM, ATP, dT50 ssDNA, absorbance 340 nm, 10-point dilution series; read-out: ATPase NADH coupling:Standard Screening:hPolQ IC50
How it was run: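 Pol theta (1-899), 10 nM, preincubated 15 min at RT with 10-point compound series in Tris pH 7.80/KCl/MgCl2 buffer, then given 100 μM ATP plus 300 nM dT50 ssDNA with PK/LDH-coupled NADH oxidation. A340 followed for 30 min; rate slopes fitted with a four-parameter model for IC50.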

Chain of Pol theta (1-899) (O75417 1-899): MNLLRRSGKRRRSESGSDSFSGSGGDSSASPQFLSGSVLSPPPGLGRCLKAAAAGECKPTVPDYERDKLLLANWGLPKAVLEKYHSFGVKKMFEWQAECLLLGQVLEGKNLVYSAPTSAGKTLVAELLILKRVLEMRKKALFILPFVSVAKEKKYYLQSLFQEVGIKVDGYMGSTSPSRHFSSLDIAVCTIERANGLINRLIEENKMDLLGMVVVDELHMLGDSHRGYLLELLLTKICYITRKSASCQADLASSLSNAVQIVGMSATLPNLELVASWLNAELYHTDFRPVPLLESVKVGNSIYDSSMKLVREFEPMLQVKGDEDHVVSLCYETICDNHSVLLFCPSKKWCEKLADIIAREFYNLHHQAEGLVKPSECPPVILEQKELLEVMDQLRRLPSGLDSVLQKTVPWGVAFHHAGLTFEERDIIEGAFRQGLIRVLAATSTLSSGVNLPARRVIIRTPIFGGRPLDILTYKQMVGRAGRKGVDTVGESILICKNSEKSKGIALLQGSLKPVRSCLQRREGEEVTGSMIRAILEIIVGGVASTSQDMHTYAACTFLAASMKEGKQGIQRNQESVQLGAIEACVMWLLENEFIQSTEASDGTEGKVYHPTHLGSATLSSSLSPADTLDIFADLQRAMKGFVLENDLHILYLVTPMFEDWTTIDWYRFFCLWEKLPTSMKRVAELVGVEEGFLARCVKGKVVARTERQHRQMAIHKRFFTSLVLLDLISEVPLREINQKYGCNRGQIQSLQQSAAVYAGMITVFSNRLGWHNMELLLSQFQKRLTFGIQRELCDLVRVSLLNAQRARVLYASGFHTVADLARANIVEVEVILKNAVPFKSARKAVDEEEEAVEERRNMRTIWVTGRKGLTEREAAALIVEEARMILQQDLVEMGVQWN

| Structure (SMILES) | IC50 [nM] |
| --- | --- |
| O=C(Nc1nnc(OCc2ccc(-c3ncco3)cc2)s1)c1cccnc1N1CCOCC1 [Example 65, 2-morpholino-N-(5-((4-(oxazol-2-yl)benzyl)oxy)-1,3,4-thiadiazol-2-yl)nicotinamide] | 1000 to 10000 |
| COc1ccccc1-c1cc(C)ncc1C(=O)Nc1nnc(O[C@H](C)c2ccc(Cl)cc2)s1 [Example 201, N-[5-[(1R)-1-(4-chlorophenyl)ethoxy]-1,3,4-thiadiazol-2-yl]-4-(2-methoxyphenyl)-6-methylpyridine-3-carboxamide] | 500 to 1000 |
| CN1CCN(c2ncccc2C(=O)Nc2nnc(OCc3ccc(Cl)cc3)s2)CC1=O [Example 45, N-[5-[(4-chlorophenyl)methoxy]-1,3,4-thiadiazol-2-yl]-2-(4-methyl-3-oxopiperazin-1-yl)pyridine-3-carboxamide] | 500 to 1000 |
| O=C(Nc1nnc(OCc2ccc(Br)cn2)s1)c1cccnc1N1CCOCC1 [Example 15] | 1000 to 10000 |
| COc1ccccc1-c1cc2cnnn2cc1C(=O)Nc1nnc(OCc2ccc(Cl)cn2)s1 [Example 223, N-[5-[(5-chloropyridin-2-yl)methoxy]-1,3,4-thiadiazol-2-yl]-5-(2-methoxyphenyl)-[1,2,3]triazolo[1,5-a]pyridine-6-carboxamide] | ≤ 200 |
| COc1ccccc1-c1cnccc1C(=O)Nc1nnc(OCc2ccc(Cl)c3c2cnn3C)s1 [Example 146, N-[5-[(7-chloro-1-methylindazol-4-yl)methoxy]-1,3,4-thiadiazol-2-yl]-3-(2-methoxyphenyl)pyridine-4-carboxamide] | ≤ 200 |
| O=C(Nc1nnc(OCc2ccc(Cl)cc2)s1)c1ccncc1-c1c(F)cccc1OC(F)F [Example 109, N-(5-((4-chlorobenzyl)oxy)-1,3,4-thiadiazol-2-yl)-3-(2-(difluoromethoxy)-6-fluorophenyl)isonicotinamide] | ≤ 200 |
| O=C(Nc1nnc(OCc2ccc(Cl)cc2)s1)c1cncn1-c1ccccc1 [Example 4, N-(5-((4-chlorobenzyl)oxy)-1,3,4-thiadiazol-2-yl)-1-phenyl-1H-imidazole-5-carboxamide] | 500 to 1000 |
| O=C(Nc1nnc(OCc2ccc(Cl)cn2)s1)c1cncn1-c1ccccc1OC(F)F [Example 168, N-[5-[(5-chloropyridin-2-yl)methoxy]-1,3,4-thiadiazol-2-yl]-3-[2-(difluoromethoxy)phenyl]imidazole-4-carboxamide] | ≤ 200 |
| COc1ccccc1-c1cc(C)ncc1C(=O)Nc1nnc(OCCc2ccc(Cl)cn2)s1 [Example 197, N-(5-(2-(5-chloropyridin-2-yl)ethoxy)-1,3,4-thiadiazol-2-yl)-4-(2-methoxyphenyl)-6-methylnicotinamide] | 200 to 500 |
| N#Cc1ccc(OC(F)F)c(-c2cnccc2C(=O)Nc2nnc(OCc3ccc(Cl)cc3)s2)c1 [Example 108, N-(5-((4-chlorobenzyl)oxy)-1,3,4-thiadiazol-2-yl)-3-(5-cyano-2-(difluoromethoxy)phenyl)isonicotinamide] | ≤ 200 |
| COc1cccc(OC)c1-c1ccncc1C(=O)Nc1nnc(OCc2ccc(Cl)cc2)s1 [Example 128, N-(5-((4-chlorobenzyl)oxy)-1,3,4-thiadiazol-2-yl)-4-(2,6-dimethoxyphenyl)nicotinamide] | 500 to 1000 |
| COc1ccccc1-c1cc(C(C)(C)O)ncc1C(=O)Nc1nnc(OCc2ccc(Cl)cn2)s1 [Example 207, N-(5-((5-chloropyridin-2-yl)methoxy)-1,3,4-thiadiazol-2-yl)-6-(2-hydroxypropan-2-yl)-4-(2-methoxyphenyl)nicotinamide] | 1000 to 10000 |
| Cc1cc(-c2ccccc2OC(F)F)c(C(=O)Nc2nnc(OCc3ccc(C4(C#N)CC4)cn3)s2)cn1 [Example 218, N-(5-[[5-(1-cyanocyclopropyl)pyridin-2-yl]methoxy]-1,3,4-thiadiazol-2-yl)-4-[2-(difluoromethoxy)phenyl]-6-methylpyridine-3-carboxamide] | ≤ 200 |
| O=C(Nc1nnc(OCc2ccc(Cl)cc2)s1)c1cnncc1-c1ccccc1OC(F)F [Example 112, N-(5-((4-chlorobenzyl)oxy)-1,3,4-thiadiazol-2-yl)-5-(2-(difluoromethoxy)phenyl)pyridazine-4-carboxamide] | ≤ 200 |
| CNC(=O)c1cc(N2CCOCC2)c(C(=O)Nc2nnc(OCc3ccc(Cl)cc3)s2)cn1 [Example 64, N^5-(5-((4-chlorobenzyl)oxy)-1,3,4-thiadiazol-2-yl)-N2-methyl-4-morpholinopyridine-2,5-dicarboxamide] | 500 to 1000 |
| COc1ccccc1-c1ccncc1C(=O)Nc1nnc(OCc2ccc(Cl)cn2)s1 [Example 89, N-(5-((5-chloropyridin-2-yl)methoxy)-1,3,4-thiadiazol-2-yl)-4-(2-methoxyphenyl)nicotinamide] | ≤ 200 |
| CC1C(=O)NCCN1c1ncccc1C(=O)Nc1nnc(OCc2ccc(Cl)cc2)s1 (racemic) [Example 52, (R) N-(5-((4-chlorobenzyl)oxy)-1,3,4-thiadiazol-2-yl)-2-(2-methyl-3-oxopiperazin-1-yl)nicotinamide and (S) N-(5-((4-chlorobenzyl)oxy)-1,3,4-thiadiazol-2-yl)-2-(2-methyl-3-oxopiperazin-1-yl)nicotinamide] | 200 to 500 |
| N#Cc1ccc(C(=O)Nc2nnc(OCc3ccc(Br)cc3)s2)c(N2CCOC3(CC3)C2)n1 [Example 85, N-(5-((4-bromobenzyl)oxy)-1,3,4-thiadiazol-2-yl)-6-cyano-2-(4-oxa-7-azaspiro[2.5]octan-7-yl)nicotinamide] | ≤ 200 |
| N#Cc1ccc(C(=O)Nc2nnc(OCc3ccc(Cl)cn3)s2)c(N2CCOCC2)n1 [Example 32] | 200 to 500 |
| COc1ccccc1-c1cc(C(F)(F)F)ncc1C(=O)Nc1nnc(OCc2ccc(Cl)cc2)s1 [Example 156, N-[5-[(4-chlorophenyl)methoxy]-1,3,4-thiadiazol-2-yl]-4-(2-methoxyphenyl)-6-(trifluoromethyl)pyridine-3-carboxamide] | ≤ 200 |
| O=C(Nc1nnc(OCc2ccc(Cl)cn2)s1)c1cnc(CO)cc1-c1ccccc1OC(F)F [Example 104, N-(5-((5-chloropyridin-2-yl)methoxy)-1,3,4-thiadiazol-2-yl)-4-(2-(difluoromethoxy)phenyl)-6-(hydroxymethyl)nicotinamide] | ≤ 200 |
| CN(C)C(=O)N1CCN(c2ncccc2C(=O)Nc2nnc(OCc3ccc(Cl)cc3)s2)CC1 [Example 28, 4-(3-((5-((4-chlorobenzyl)oxy)-1,3,4-thiadiazol-2-yl)carbamoyl)pyridin-2-yl)-N,N-dimethylpiperazine-1-carboxamide] | 1000 to 10000 |
| O=C(Nc1nnc(OCc2ccc(Cl)cc2)s1)c1cccnc1N1CCN2C(=O)CC[C@@H]2C1 (single isomer, unassigned) [Example 70, (R)—N-(5-((4-chlorobenzyl)oxy)-1,3,4-thiadiazol-2-yl)-2-(6-oxohexahydropyrrolo-[1,2-a]pyrazin-2(1H)-yl)nicotinamide or (S)—N-(5-((4-chlorobenzyl)oxy)-1,3,4-thiadiazol-2-yl)-2-(6-oxohexahydropyrrolo[1,2-a]pyrazin-2(1H)-yl)nicotinamide] | 500 to 1000 |
| N#Cc1cc(-c2c(F)cccc2OC(F)F)c(C(=O)Nc2nnc(OCc3ccc(Cl)cc3)s2)cn1 [Example 192, N-(5-((4-chlorobenzyl)oxy)-1,3,4-thiadiazol-2-yl)-6-cyano-4-(2-(difluoromethoxy)-6-fluorophenyl)nicotinamide] | ≤ 200 |
